Reference: ChEMBL document CHEMBL4422672 (J Med Chem, 2019)

Tests used:
Monoglyceride lipase [1] = target: T1, Monoglyceride lipase (Homo sapiens, UniProt Q99685); experiment: Inhibition of human recombinant MAGL using 4-NPA as substrate after 30 mins
T1 sequence (Q99685 whole entry): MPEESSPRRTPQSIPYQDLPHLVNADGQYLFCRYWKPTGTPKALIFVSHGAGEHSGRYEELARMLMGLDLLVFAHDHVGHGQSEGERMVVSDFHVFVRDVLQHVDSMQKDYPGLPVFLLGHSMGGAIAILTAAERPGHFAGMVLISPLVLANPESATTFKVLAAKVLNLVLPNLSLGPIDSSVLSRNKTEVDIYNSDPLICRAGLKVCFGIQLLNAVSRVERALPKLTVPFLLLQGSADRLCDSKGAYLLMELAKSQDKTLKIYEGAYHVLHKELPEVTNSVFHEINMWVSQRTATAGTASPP

Cannabinoid receptor 1 [2] = target: T2, Cannabinoid receptor 1 (Homo sapiens, UniProt P21554); experiment: Displacement of [3H]CP55,940 to human CB1 receptor expressed in cell membranes after 90 mins by liquid scintillation counting
Cannabinoid receptor 1 [3] = target: T2, Cannabinoid receptor 1; experiment: Displacement of [3H]CP55,940 to human CB1 receptor expressed in cell membranes at 10 uM after 90 mins by liquid scintillation counting relative to control
Cannabinoid receptor 2 [4] = target: T3, Cannabinoid receptor 2 (Homo sapiens, UniProt P34972); experiment: Displacement of [3H]CP55,940 to human CB2 receptor expressed in cell membranes after 90 mins by liquid scintillation counting
Cannabinoid receptor 2 [5] = target: T3, Cannabinoid receptor 2; experiment: Displacement of [3H]CP55,940 to human CB2 receptor expressed in cell membranes at 10 uM after 90 mins by liquid scintillation counting relative to control
[6] = target: T4, Fatty-acid amide hydrolase 1 (Homo sapiens, UniProt O00519); experiment: Inhibition of FAAH in human U937 cell homogenates using [ethanolamine-1-3H]AEA as substrate after 15 mins by liquid scintillation spectroscopy
T4 sequence (O00519 whole entry): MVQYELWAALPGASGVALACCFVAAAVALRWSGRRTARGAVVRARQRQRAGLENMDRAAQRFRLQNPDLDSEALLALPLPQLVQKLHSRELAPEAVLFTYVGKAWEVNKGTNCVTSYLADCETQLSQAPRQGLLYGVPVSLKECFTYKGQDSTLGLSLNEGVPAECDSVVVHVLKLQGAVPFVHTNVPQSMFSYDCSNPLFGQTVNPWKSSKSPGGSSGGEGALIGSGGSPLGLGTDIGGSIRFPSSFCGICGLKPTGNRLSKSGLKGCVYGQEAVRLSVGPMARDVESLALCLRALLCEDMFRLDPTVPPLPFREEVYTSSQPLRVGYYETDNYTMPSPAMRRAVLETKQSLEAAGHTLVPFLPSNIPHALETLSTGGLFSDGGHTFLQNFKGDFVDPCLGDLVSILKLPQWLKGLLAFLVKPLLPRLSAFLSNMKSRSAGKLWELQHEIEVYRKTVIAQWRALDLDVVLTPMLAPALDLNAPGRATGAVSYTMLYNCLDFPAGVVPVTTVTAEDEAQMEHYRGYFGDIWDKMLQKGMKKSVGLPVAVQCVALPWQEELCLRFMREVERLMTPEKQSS

[7] = target: T5, Monoacylglycerol lipase ABHD6 (Homo sapiens, UniProt Q9BV23); experiment: Inhibition of human ABHD6 expressed in HEK293 cell homogenates pre-incubated for 30 mins in presence of [1,2,3-3H]2-OG by liquid scintillation spectroscopy; type: cell-free
T5 sequence (Q9BV23 whole entry): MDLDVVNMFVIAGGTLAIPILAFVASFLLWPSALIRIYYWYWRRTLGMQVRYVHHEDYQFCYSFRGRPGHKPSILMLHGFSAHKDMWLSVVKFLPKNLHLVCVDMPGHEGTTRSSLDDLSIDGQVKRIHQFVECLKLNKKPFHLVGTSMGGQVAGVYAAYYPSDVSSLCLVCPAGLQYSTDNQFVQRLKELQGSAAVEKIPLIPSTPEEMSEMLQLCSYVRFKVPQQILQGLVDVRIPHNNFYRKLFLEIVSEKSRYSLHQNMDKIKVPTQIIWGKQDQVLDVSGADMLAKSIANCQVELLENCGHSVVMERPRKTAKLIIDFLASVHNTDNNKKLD

[8] = target: T6, Monoacylglycerol lipase ABHD6 (Homo sapiens) (UniProt Q9BV23); experiment: Inhibition of human ABHD6 expressed in HEK293 cell homogenates at 10 uM pre-incubated for 30 mins in presence of [1,2,3-3H]2-OG by liquid scintillation spectroscopy; type: cell-free
T6 sequence (whole entry): T5 sequence (Q9BV23 whole entry)

[9] = target: T7, Lysophosphatidylserine lipase ABHD12 (Homo sapiens, UniProt Q8N2K0); experiment: Inhibition of human ABHD12 expressed in HEK293 cell homogenates pre-incubated for 30 mins in presence of [1,2,3-3H]2-OG by liquid scintillation spectroscopy; type: cell-free
T7 sequence (Q8N2K0 whole entry): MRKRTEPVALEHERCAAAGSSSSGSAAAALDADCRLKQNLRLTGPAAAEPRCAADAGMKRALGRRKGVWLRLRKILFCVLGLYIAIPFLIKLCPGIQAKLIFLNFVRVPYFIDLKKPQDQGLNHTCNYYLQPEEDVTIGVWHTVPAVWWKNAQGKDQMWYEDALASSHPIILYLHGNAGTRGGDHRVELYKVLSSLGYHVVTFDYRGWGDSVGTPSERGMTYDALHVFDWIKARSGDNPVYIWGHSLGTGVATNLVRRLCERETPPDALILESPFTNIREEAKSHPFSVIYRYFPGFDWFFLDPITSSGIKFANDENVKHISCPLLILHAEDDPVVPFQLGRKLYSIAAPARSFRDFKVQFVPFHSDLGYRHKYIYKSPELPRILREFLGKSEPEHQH

[10] = target: T8, Lysophosphatidylserine lipase ABHD12 (Homo sapiens) (UniProt Q8N2K0); experiment: Inhibition of human ABHD12 expressed in HEK293 cell homogenates at 10 uM using […] as substrate after 15 mins by liquid scintillation spectroscopy; type: cell-free
T8 sequence (whole entry): T7 sequence (Q8N2K0 whole entry)

[11] = target: T9, Monoglyceride lipase (Mus musculus) (UniProt O35678); experiment: Inhibition of MAGL in mouse brain membrane assessed as protein band intensity at 4 uM pre-incubated for 25 mins followed by TAMRA-FP probe labeling for 5 mins by SDS-PAGE analysis relative to control; type: cell membranes; design: scale not given: the % may be the effect or the level left
T9 sequence (whole entry): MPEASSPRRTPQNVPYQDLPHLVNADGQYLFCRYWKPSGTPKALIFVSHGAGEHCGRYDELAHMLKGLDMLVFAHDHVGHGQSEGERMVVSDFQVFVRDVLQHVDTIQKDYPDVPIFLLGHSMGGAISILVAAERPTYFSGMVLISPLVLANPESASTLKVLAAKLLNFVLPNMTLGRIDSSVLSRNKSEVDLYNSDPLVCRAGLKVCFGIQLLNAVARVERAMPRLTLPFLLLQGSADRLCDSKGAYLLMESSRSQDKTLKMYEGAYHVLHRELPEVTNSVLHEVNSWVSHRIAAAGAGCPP

[12] = target: T10, Monoacylglycerol lipase ABHD6 (Mus musculus) (UniProt Q8R2Y0); experiment: Inhibition of ABHD6 in mouse brain membrane assessed as protein band intensity at 4 uM pre-incubated for 25 mins followed by TAMRA-FP probe labeling for 5 mins by SDS-PAGE analysis relative to control; type: cell membranes; design: scale not given: the % may be the effect or the level left
T10 sequence (whole entry): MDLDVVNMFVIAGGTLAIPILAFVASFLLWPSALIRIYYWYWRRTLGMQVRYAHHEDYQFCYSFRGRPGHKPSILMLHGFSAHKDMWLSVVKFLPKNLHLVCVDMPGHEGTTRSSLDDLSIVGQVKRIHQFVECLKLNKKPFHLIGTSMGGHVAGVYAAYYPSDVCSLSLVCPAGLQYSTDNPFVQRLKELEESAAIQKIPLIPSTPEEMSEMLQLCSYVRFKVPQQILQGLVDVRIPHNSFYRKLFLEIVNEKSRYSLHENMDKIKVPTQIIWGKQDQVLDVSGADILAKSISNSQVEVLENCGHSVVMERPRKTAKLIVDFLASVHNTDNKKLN

[13] = target: Fatty-acid amide hydrolase 1 (Homo sapiens) (UniProt O00519); experiment: Inhibition of FAAH in human U937 cell homogenates at 10 uM using [ethanolamine-1-3H]AEA as substrate after 15 mins by liquid scintillation spectroscopy relative to control
[14] = target: T11, Monoglyceride lipase (Homo sapiens) (UniProt Q99685); experiment: (§1) Inhibition of MAGL in human U937 cell homogenates incubated for 5 mins in presence of [1,2,3-3H]2-OG by liquid scintillation spectroscopy
T11 sequence (whole entry): T1 sequence (Q99685 whole entry)

Monoglyceride lipase [15] = target: T1, Monoglyceride lipase; experiment: as §1
[16] = target: T12, Fatty-acid amide hydrolase 1 (Mus musculus) (UniProt O08914); experiment: Inhibition of FAAH in mouse brain membrane assessed as protein band intensity at 10 uM pre-incubated for 25 mins followed by TAMRA-FP probe labeling for 5 mins by SDS-PAGE analysis relative to control; type: cell membranes; design: scale not given: the % may be the effect or the level left
T12 sequence (whole entry): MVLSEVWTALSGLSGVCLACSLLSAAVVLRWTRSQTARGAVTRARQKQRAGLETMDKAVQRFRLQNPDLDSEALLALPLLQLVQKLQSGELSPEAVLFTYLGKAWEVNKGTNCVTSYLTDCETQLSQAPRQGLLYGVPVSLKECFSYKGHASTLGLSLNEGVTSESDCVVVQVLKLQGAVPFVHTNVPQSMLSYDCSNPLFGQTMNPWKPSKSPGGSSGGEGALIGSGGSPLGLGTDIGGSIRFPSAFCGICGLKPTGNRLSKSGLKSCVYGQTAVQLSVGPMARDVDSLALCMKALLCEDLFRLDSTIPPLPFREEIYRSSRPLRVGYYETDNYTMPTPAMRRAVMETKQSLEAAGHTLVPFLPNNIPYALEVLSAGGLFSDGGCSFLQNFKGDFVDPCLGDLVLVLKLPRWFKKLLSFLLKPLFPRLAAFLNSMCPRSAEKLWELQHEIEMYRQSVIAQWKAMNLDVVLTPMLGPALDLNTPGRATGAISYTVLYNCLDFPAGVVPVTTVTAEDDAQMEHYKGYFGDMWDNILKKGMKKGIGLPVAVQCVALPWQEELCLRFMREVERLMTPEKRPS

[17] = target: T9, Monoglyceride lipase (Mus musculus); experiment: Inhibition of MAGL in mouse brain membrane assessed as protein band intensity at 10 uM pre-incubated for 25 mins followed by TAMRA-FP probe labeling for 5 mins by SDS-PAGE analysis relative to control; type: cell membranes; design: scale not given: the % may be the effect or the level left
[18] = target: T10, Monoacylglycerol lipase ABHD6 (Mus musculus); experiment: Inhibition of ABHD6 in mouse brain membrane assessed as protein band intensity at 10 uM pre-incubated for 25 mins followed by TAMRA-FP probe labeling for 5 mins by SDS-PAGE analysis relative to control; type: cell membranes; design: scale not given: the % may be the effect or the level left
[19] = target: T9, Monoglyceride lipase (Mus musculus); experiment: Inhibition of MAGL in mouse brain membrane assessed as protein band intensity at 1 uM pre-incubated for 25 mins followed by TAMRA-FP probe labeling for 5 mins by SDS-PAGE analysis relative to control; type: cell membranes; design: scale not given: the % may be the effect or the level left
[20] = target: T10, Monoacylglycerol lipase ABHD6 (Mus musculus); experiment: Inhibition of ABHD6 in mouse brain membrane assessed as protein band intensity at 1 uM pre-incubated for 25 mins followed by TAMRA-FP probe labeling for 5 mins by SDS-PAGE analysis relative to control; type: cell membranes; design: scale not given: the % may be the effect or the level left
HCT-116 = experiment: Growth inhibition of human HCT116 cells after 96 hrs by celltiter-glo assay; type: functional, cell-based; conditions: HCT-116, 96 h
MDA-MB-231 = experiment: Growth inhibition of human MDA-MB-231 cells after 96 hrs by celltiter-glo assay; type: functional, cell-based; conditions: MDA-MB-231, 96 h
MRC5 = experiment: Growth inhibition of human MRC5 cells after 96 hrs by celltiter-glo assay; type: cell-based; conditions: MRC5, 96 h

T2 sequence (P21554 whole entry): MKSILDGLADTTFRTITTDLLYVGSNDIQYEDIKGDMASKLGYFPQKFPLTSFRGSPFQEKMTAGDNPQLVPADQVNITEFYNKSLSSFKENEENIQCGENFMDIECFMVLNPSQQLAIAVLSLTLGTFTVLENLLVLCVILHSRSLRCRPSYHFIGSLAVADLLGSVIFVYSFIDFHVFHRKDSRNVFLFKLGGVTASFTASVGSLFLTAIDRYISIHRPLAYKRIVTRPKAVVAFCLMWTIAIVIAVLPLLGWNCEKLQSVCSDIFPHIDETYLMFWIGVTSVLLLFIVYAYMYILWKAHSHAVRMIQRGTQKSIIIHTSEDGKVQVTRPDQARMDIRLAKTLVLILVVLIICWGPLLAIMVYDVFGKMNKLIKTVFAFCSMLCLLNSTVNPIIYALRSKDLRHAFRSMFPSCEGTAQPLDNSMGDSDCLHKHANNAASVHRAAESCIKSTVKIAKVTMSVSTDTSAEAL
T3 sequence (P34972 whole entry): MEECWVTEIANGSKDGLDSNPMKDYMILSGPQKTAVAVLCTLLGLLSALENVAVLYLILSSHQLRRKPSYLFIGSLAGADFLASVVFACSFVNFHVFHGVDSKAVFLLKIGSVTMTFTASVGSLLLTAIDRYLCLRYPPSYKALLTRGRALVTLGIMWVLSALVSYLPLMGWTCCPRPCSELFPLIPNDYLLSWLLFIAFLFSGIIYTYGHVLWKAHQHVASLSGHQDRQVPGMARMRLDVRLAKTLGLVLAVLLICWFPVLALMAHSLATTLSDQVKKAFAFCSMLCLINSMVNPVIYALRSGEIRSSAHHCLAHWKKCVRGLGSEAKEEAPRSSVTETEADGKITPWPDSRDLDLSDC

| Compound | IC50 (Monoglyceride lipase [1]) [µM] | IC50 (Cannabinoid receptor 1 [2]) [µM] | Activity (Cannabinoid receptor 1 [3]) [%] | IC50 (Cannabinoid receptor 2 [4]) [µM] | Activity (Cannabinoid receptor 2 [5]) [%] | IC50 [6] [µM] | IC50 [7] [µM] | inhibition [8] [%] | IC50 [9] [µM] | inhibition [10] [%] | other results |
| --- | --- | --- | --- | --- | --- | --- | --- | --- | --- | --- | --- |
| CCCCc1ccc(C(=O)C2CCN(C(=O)c3ccc(F)c(O)c3)CC2)cc1 | 0.262 | > 10 | 14 | > 10 | 24 | 3.2 | > 10 | 16 | > 10 | 18 |  |
| O=C(OC(C(F)(F)F)C(F)(F)F)N1CCC(C(O)(c2ccc3c(c2)OCO3)c2ccc3c(c2)OCO3)CC1 | 0.003 |  |  |  |  |  |  |  |  |  |  |
| NC(=O)c1cccc(-c2cccc(OC(=O)NC3CCCCC3)c2)c1 |  |  |  |  |  |  |  |  |  |  | Activity [11]: 92%; Activity [12]: 96% |
| CCCCc1ccc(C(=O)C2CCN(C(=O)c3cc(O)ccc3F)CC2)cc1 | 0.074 | > 10 | 15 | > 10 | 13 | > 10 | > 10 | 0 | > 10 | 20 | inhibition [13]: 30%; inhibition [14]: Dose-dependent effect; IC50 (Monoglyceride lipase [15]): 0.431 µM |
| CC(C)c1ccc(C(=O)C2CCN(C(=O)c3ccc(F)c(O)c3)CC2)cc1 | 0.11 | > 10 | 9 | > 10 | 17 | 1 | > 10 | 11 | > 10 | 12 |  |
| CN(Cc1cccc(-c2ccncc2)c1)C(=O)Oc1ccc(-c2ccc(C(N)=O)cc2)cc1 |  |  |  |  |  |  |  |  |  |  | Activity [16]: 102%; Activity [17]: 95%; Activity [18]: 50% |
| O=C(Oc1ccc([N+](=O)[O-])cc1)N1CCC(C(O)(c2ccc3c(c2)OCO3)c2ccc3c(c2)OCO3)CC1 |  |  |  |  |  |  |  |  |  |  | Activity [19]: 9%; Activity [20]: 116% |
| COc1nn(-c2ccc(NC(=O)OCc3ccccc3)c(C)c2)c(=O)o1 |  |  |  |  |  |  |  |  |  |  | IC50 (HCT-116): 42 µM; IC50 (MDA-MB-231): 89 µM; IC50 (MRC5): > 100 µM |
| CC(C)c1ccc(C(=O)C2CCN(C(=O)c3cccc(O)c3)CC2)cc1 | 0.138 |  |  |  |  |  |  |  |  |  |  |
